Values of other authors in patent US20220218877A1, “C[…] COMPOSITIONS” ([…], priority 2019, published 2022).

conditions: depending upon the conditions

| Compound | Solubility in aqueous solutions |
| --- | --- |
| CCCCCc1cc(O)c2c(c1)OC(C)(C)[C@@H]1CCC(C)=C[C@@H]21 [THC, tetrahydrocannabinol] | a few micrograms/ml or less |
| CCCCCc1cc(O)c2c(c1)OC(C)(C)c1ccc(C)cc1-2 [cannabinol] | a few micrograms/ml or less |
| cannabidiol [CBD] | a few micrograms/ml or less |
